The values that follow come from PubChem BioAssay (NCI).

The structures appear in SMILES notation.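 Grown in 96-well plates, cells were treated for 48 hours with each compound at five concentrations. Insufficient inhibition: endpoint recorded as highest concentration tested. Definition used: TGI = concentration required for complete inhibition of growth.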 Where only a bound is given, the exact number is not on record here.

One assay relates to SK-MEL-5 melanoma. Kind of assay: NCI tumour cell line growth inhibition, 48 h.
The molecule `C=C1CC(OC)(C(O)C(=O)N[C@H]2OCO[C@H]3C2O[C@H](C[C@@H](COC)OC)C(C)(C)C3OC)O[C@H](C)[C@@H]1C` (stereo partly drawn) showed a TGI of less than 0.00482 µM.

Consider `CC1CCC[P+](Cc2ccccc2)(c2ccccc2)CC1` (stereo not drawn), for which the TGI is 35.9 µM.

A further assay deals with SK-OV-3 ovarian. The assay is described as follows: NCI tumour cell line growth inhibition, 48 h.
`COc1ccc(CNc2nc3ccc(C(F)(F)F)cc3nc2-c2ccccc2)cc1OC` registered a TGI greater than 100 µM.

`O=C(O/N=C1/CCC/C1=C\c1ccccc1)c1ccc([N+](=O)[O-])cc1` registered a TGI greater than 100 µM.

For `CC1CCC[P+](Cc2ccccc2)(c2ccccc2)CC1` (stereo not drawn), the TGI was greater than 100 µM.

Another assay relates to SN12C renal. Kind of assay: NCI tumour cell line growth inhibition, 48 h.
As to `COc1ccc(CNc2nc3ccc(C(F)(F)F)cc3nc2-c2ccccc2)cc1OC`, the TGI was greater than 100 µM.

In turn, `O=C(O/N=C1/CCC/C1=C\c1ccccc1)c1ccc([N+](=O)[O-])cc1` came in with a TGI greater than 100 µM.

Turning to `C=C1CC(OC)(C(O)C(=O)N[C@H]2OCO[C@H]3C2O[C@H](C[C@@H](COC)OC)C(C)(C)C3OC)O[C@H](C)[C@@H]1C` (stereo partly drawn), the TGI is less than 0.00482 µM.

`CC1CCC[P+](Cc2ccccc2)(c2ccccc2)CC1` (stereo not drawn) registered a TGI greater than 100 µM.

In another assay the test system is SN12K1 renal. The assay is described as follows: NCI tumour cell line growth inhibition, 48 h.
For `C=C1CC(OC)(C(O)C(=O)N[C@H]2OCO[C@H]3C2O[C@H](C[C@@H](COC)OC)C(C)(C)C3OC)O[C@H](C)[C@@H]1C` (stereo partly drawn), the TGI is less than 0.00482 µM.

A further assay relates to SNB-19 CNS. Kind of assay: NCI tumour cell line growth inhibition, 48 h.
Take `COc1ccc(CNc2nc3ccc(C(F)(F)F)cc3nc2-c2ccccc2)cc1OC`: the TGI is greater than 100 µM.

In turn, `C=C1CC(OC)(C(O)C(=O)N[C@H]2OCO[C@H]3C2O[C@H](C[C@@H](COC)OC)C(C)(C)C3OC)O[C@H](C)[C@@H]1C` (stereo partly drawn) gave a TGI of less than 0.00482 µM.

The molecule `CC1CCC[P+](Cc2ccccc2)(c2ccccc2)CC1` (stereo not drawn) had a TGI greater than 100 µM.

In the next assay the test system is SNB-75 CNS. The assay is described as follows: NCI tumour cell line growth inhibition, 48 h.
The molecule `COc1ccc(CNc2nc3ccc(C(F)(F)F)cc3nc2-c2ccccc2)cc1OC` displayed a TGI greater than 100 µM.

Turning to `O=C(O/N=C1/CCC/C1=C\c1ccccc1)c1ccc([N+](=O)[O-])cc1`, the TGI turned out to be 91.3 µM.

In the case of `C=C1CC(OC)(C(O)C(=O)N[C@H]2OCO[C@H]3C2O[C@H](C[C@@H](COC)OC)C(C)(C)C3OC)O[C@H](C)[C@@H]1C` (stereo partly drawn), the TGI was less than 0.00482 µM.

As to `CC1CCC[P+](Cc2ccccc2)(c2ccccc2)CC1` (stereo not drawn), the TGI was greater than 100 µM.

The next assay has as its system SNB-78 CNS. Kind of assay: NCI tumour cell line growth inhibition, 48 h.
`COc1ccc(CNc2nc3ccc(C(F)(F)F)cc3nc2-c2ccccc2)cc1OC` yielded a TGI greater than 100 µM.

Molecule `O=C(O/N=C1/CCC/C1=C\c1ccccc1)c1ccc([N+](=O)[O-])cc1` displayed a TGI greater than 100 µM.

In the case of `C=C1CC(OC)(C(O)C(=O)N[C@H]2OCO[C@H]3C2O[C@H](C[C@@H](COC)OC)C(C)(C)C3OC)O[C@H](C)[C@@H]1C` (stereo partly drawn), the TGI is less than 0.00482 µM.

As to `CC1CCC[P+](Cc2ccccc2)(c2ccccc2)CC1` (stereo not drawn), the TGI is greater than 100 µM.

A further assay relates to SR leukemia. The assay is described as follows: NCI tumour cell line growth inhibition, 48 h.
The molecule `COc1ccc(CNc2nc3ccc(C(F)(F)F)cc3nc2-c2ccccc2)cc1OC` displayed a TGI greater than 100 µM.

In turn, `O=C(O/N=C1/CCC/C1=C\c1ccccc1)c1ccc([N+](=O)[O-])cc1` gave a TGI greater than 100 µM.

A further assay relates to SW-620 colon. The assay is described as follows: NCI tumour cell line growth inhibition, 48 h.
With `COc1ccc(CNc2nc3ccc(C(F)(F)F)cc3nc2-c2ccccc2)cc1OC`, the TGI was greater than 100 µM.

`O=C(O/N=C1/CCC/C1=C\c1ccccc1)c1ccc([N+](=O)[O-])cc1` registered a TGI greater than 100 µM.

Consider `C=C1CC(OC)(C(O)C(=O)N[C@H]2OCO[C@H]3C2O[C@H](C[C@@H](COC)OC)C(C)(C)C3OC)O[C@H](C)[C@@H]1C` (stereo partly drawn), for which the TGI is 48.2 µM.

`CC1CCC[P+](Cc2ccccc2)(c2ccccc2)CC1` (stereo not drawn) yielded a TGI greater than 100 µM.

The next assay has as its system TK-10 renal. Kind of assay: NCI tumour cell line growth inhibition, 48 h.
As to `COc1ccc(CNc2nc3ccc(C(F)(F)F)cc3nc2-c2ccccc2)cc1OC`, the TGI was greater than 100 µM.

`O=C(O/N=C1/CCC/C1=C\c1ccccc1)c1ccc([N+](=O)[O-])cc1`: the TGI was greater than 100 µM.

On to `CC1CCC[P+](Cc2ccccc2)(c2ccccc2)CC1` (stereo not drawn), for which the TGI is greater than 100 µM.

A further assay concerns U251 CNS. The assay is described as follows: NCI tumour cell line growth inhibition, 48 h.
Regarding `COc1ccc(CNc2nc3ccc(C(F)(F)F)cc3nc2-c2ccccc2)cc1OC`, the TGI was greater than 100 µM.

The molecule `O=C(O/N=C1/CCC/C1=C\c1ccccc1)c1ccc([N+](=O)[O-])cc1` returned a TGI greater than 100 µM.

Molecule `C=C1CC(OC)(C(O)C(=O)N[C@H]2OCO[C@H]3C2O[C@H](C[C@@H](COC)OC)C(C)(C)C3OC)O[C@H](C)[C@@H]1C` (stereo partly drawn) had a TGI of less than 0.00482 µM.

In the case of `CC1CCC[P+](Cc2ccccc2)(c2ccccc2)CC1` (stereo not drawn), the TGI was greater than 100 µM.

The next assay deals with UACC-257 melanoma. The assay is described as follows: NCI tumour cell line growth inhibition, 48 h.
Turning to `COc1ccc(CNc2nc3ccc(C(F)(F)F)cc3nc2-c2ccccc2)cc1OC`, the TGI was greater than 100 µM.

`O=C(O/N=C1/CCC/C1=C\c1ccccc1)c1ccc([N+](=O)[O-])cc1` showed a TGI greater than 100 µM.

Molecule `C=C1CC(OC)(C(O)C(=O)N[C@H]2OCO[C@H]3C2O[C@H](C[C@@H](COC)OC)C(C)(C)C3OC)O[C@H](C)[C@@H]1C` (stereo partly drawn) had a TGI of less than 0.00482 µM.

The subject of another assay is UACC-62 melanoma. Kind of assay: NCI tumour cell line growth inhibition, 48 h.
On to `COc1ccc(CNc2nc3ccc(C(F)(F)F)cc3nc2-c2ccccc2)cc1OC`, for which the TGI is greater than 100 µM.

In turn, `O=C(O/N=C1/CCC/C1=C\c1ccccc1)c1ccc([N+](=O)[O-])cc1` displayed a TGI greater than 100 µM.

`C=C1CC(OC)(C(O)C(=O)N[C@H]2OCO[C@H]3C2O[C@H](C[C@@H](COC)OC)C(C)(C)C3OC)O[C@H](C)[C@@H]1C` (stereo partly drawn) yielded a TGI of less than 0.00482 µM.

Consider `CC1CCC[P+](Cc2ccccc2)(c2ccccc2)CC1` (stereo not drawn), for which the TGI was greater than 100 µM.

For the next assay, the system named is UO-31 renal. The assay is described as follows: NCI tumour cell line growth inhibition, 48 h.
With `COc1ccc(CNc2nc3ccc(C(F)(F)F)cc3nc2-c2ccccc2)cc1OC`, the TGI is greater than 100 µM.

For the molecule `O=C(O/N=C1/CCC/C1=C\c1ccccc1)c1ccc([N+](=O)[O-])cc1`, the TGI came to 74.9 µM.

With `C=C1CC(OC)(C(O)C(=O)N[C@H]2OCO[C@H]3C2O[C@H](C[C@@H](COC)OC)C(C)(C)C3OC)O[C@H](C)[C@@H]1C` (stereo partly drawn), the TGI was less than 0.00482 µM.

With `CC1CCC[P+](Cc2ccccc2)(c2ccccc2)CC1` (stereo not drawn), the TGI was greater than 100 µM.

The next assay concerns XF 498 CNS. The assay is described as follows: NCI tumour cell line growth inhibition, 48 h.
With `COc1ccc(CNc2nc3ccc(C(F)(F)F)cc3nc2-c2ccccc2)cc1OC`, the TGI is greater than 100 µM.

Consider `C=C1CC(OC)(C(O)C(=O)N[C@H]2OCO[C@H]3C2O[C@H](C[C@@H](COC)OC)C(C)(C)C3OC)O[C@H](C)[C@@H]1C` (stereo partly drawn), for which the TGI is less than 0.00482 µM.

`CC1CCC[P+](Cc2ccccc2)(c2ccccc2)CC1` (stereo not drawn) returned a TGI greater than 100 µM.
